{
  "source": "patent US7273694B2",
  "about": "“Method and apparatus for reducing pathogens in a biological sample” (Safety Art, LLC, priority 2001, dated 2007)",
  "key": {"[1]": {"tested_on": "Brucella abortus Strain 19", "type": "cell-based", "settings": "Strain 19 [vaccine strain]"}, "Campylobacter fetus": {"tested_on": "Campylobacter fetus", "experiment": "Antibiotic sensitivity of bacterial isolate", "type": "cell-based"}, "[2]": {"tested_on": "fresh semen of domestic bulls (Bos taurus)"}, "[3]": {"tested_on": "fresh semen of gaur (Bos gaur) bulls"}, "[4]": {"tested_on": "cryopreserved bovine (Bos gaurus) sperm"}},
  "note": "Like-named read-outs stand apart in the source and are kept apart here.",
  "data": [
    {"molecule": "CCC[C@@H]1C[C@@H](C(=O)N[C@@H]([C@H]2O[C@H](SC)[C@H](O)[C@@H](O)[C@H]2O)[C@@H](C)O)N(C)C1", "note": "[lincomycin]", "values": [
      {"measurement": "sensitivity of B. abortus to antibiotic", "setting": "[1]", "result": "resistant"},
      {"measurement": "sensitivity of C. fetus to antibiotic", "setting": "Campylobacter fetus; laboratory isolate [4914]", "result": "sensitive"}
    ]},
    {"molecule": "CN[C@@H]1[C@H](O)[C@H](NC)[C@H]2O[C@@]3(O)C(=O)C[C@@H](C)O[C@H]3O[C@@H]2[C@H]1O", "note": "[spectinomycin]", "values": [
      {"measurement": "sensitivity of B. abortus to antibiotic", "setting": "[1]", "result": "sensitive"},
      {"measurement": "sensitivity of C. fetus to antibiotic", "setting": "Campylobacter fetus; laboratory isolate [4914]", "result": "intermediate"}
    ]},
    {"molecule": "CC[C@H]1OC(=O)C[C@@H](O)[C@H](C)[C@@H](O[C@@H]2O[C@H](C)[C@@H](O[C@H]3C[C@@](C)(O)[C@@H](O)[C@H](C)O3)[C@H](N(C)C)[C@H]2O)[C@@H](CC=O)C[C@@H](C)C(=O)/C=C/C(C)=C/[C@@H]1CO[C@@H]1O[C@H](C)[C@@H](O)[C@@H](OC)[C@H]1OC", "note": "[tylosin]", "values": [
      {"measurement": "sensitivity of B. abortus to antibiotic", "setting": "[1]", "result": "intermediate"},
      {"measurement": "sensitivity of C. fetus to antibiotic", "setting": "Campylobacter fetus; laboratory isolate [4914]", "result": "intermediate"}
    ]},
    {"molecule": "gentamicin", "values": [
      {"measurement": "sensitivity of B. abortus to antibiotic", "setting": "[1]", "result": "sensitive"},
      {"measurement": "sensitivity of C. fetus to antibiotic", "setting": "Campylobacter fetus", "result": "sensitive"}
    ]},
    {"molecule": "trypsin", "values": [
      {"measurement": "detrimental effects on sperm (motility, viability, acrosomal integrity)", "setting": "[2]", "result": "no detrimental affects"},
      {"measurement": "detrimental effects on sperm (motility, viability, acrosomal integrity)", "setting": "[3]", "result": "no detrimental affects"},
      {"measurement": "detrimental effects of increasing the concentration", "setting": "[4]", "result": "no detrimental effects"}
    ]}
  ]
}
